Laboratory results: ChEMBL document CHEMBL5614439, “Targeting Thyroid-Stimulating Hormone Receptor: A Perspective on Small-Molecule Modulators and Their Therapeutic Potential” (J Med Chem, 2024)

Experiments:
[1] = target: T1, Thyrotropin receptor (Homo sapiens, UniProt P16473); experiment: Agonist activity at TSHR (unknown origin) stably expressed in HEK293 cells assessed as intracellular cAMP accumulation incubated for 1 hr; format: functional, cell-based
[2] = target: Lutropin-choriogonadotropic hormone receptor (Homo sapiens, UniProt P22888); experiment: Agonist activity at LHCGR (unknown origin); format: functional
[3] = target: T2, Follicle-stimulating hormone receptor (Homo sapiens, UniProt P23945); experiment: Agonist activity at FSHR (unknown origin); format: functional
T2 sequence (P23945 whole entry): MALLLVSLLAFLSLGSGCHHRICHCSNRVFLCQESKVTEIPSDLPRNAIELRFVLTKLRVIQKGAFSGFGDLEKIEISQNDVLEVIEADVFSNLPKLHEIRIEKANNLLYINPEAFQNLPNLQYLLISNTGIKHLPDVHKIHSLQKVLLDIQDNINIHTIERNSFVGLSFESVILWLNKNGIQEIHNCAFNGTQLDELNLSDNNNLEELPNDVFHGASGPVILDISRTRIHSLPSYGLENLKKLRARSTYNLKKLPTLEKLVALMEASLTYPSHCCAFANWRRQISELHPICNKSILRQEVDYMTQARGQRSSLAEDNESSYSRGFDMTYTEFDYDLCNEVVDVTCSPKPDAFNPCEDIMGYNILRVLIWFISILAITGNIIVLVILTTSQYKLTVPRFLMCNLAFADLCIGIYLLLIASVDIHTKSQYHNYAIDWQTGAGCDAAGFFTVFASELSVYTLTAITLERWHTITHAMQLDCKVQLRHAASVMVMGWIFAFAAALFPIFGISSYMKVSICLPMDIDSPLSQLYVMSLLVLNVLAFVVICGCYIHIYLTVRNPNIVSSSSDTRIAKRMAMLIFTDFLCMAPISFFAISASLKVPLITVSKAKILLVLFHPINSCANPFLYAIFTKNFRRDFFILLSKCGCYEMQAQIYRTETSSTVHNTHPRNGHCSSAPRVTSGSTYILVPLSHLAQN

[4] = target: T1, Thyrotropin receptor; experiment: Inverse agonist activity at TSH receptor (unknown origin) stably expressed in HEK293 cells assessed as reduction in TSH-induced cAMP production incubated for 40 mins by ELISA analysis; format: functional, cell-based
[5] = target: T1, Thyrotropin receptor; experiment: Agonist activity at N-terminal HA-tagged TSHR (unknown origin) stably expressed in CHO cells assessed as change in intracellular […] level incubated for 60 mins by CRE-driven luciferase reporter based microplate reader; format: functional, cell-based
[6] = target: T1, Thyrotropin receptor; experiment: Agonist activity at TSHR (unknown origin); format: functional
[7] = target: T1, Thyrotropin receptor; experiment: Agonist activity at TSHR (unknown origin) expressed in CHO cells; format: functional, cell-based
[8] = target: T1, Thyrotropin receptor; experiment: Agonist activity at N-terminal HA-tagged TSHR (unknown origin) assessed as intracellular calcium level measured for 60 mins by HTS assay; format: functional, cell-based
[9] = Inhibition of b-TSH-induced C-terminal GFP-tagged mouse TSHR activation expressed in HEK293 cells by cAMP assay; format: cell-based

Sequence of Lutropin-choriogonadotropic hormone receptor (P22888 whole entry): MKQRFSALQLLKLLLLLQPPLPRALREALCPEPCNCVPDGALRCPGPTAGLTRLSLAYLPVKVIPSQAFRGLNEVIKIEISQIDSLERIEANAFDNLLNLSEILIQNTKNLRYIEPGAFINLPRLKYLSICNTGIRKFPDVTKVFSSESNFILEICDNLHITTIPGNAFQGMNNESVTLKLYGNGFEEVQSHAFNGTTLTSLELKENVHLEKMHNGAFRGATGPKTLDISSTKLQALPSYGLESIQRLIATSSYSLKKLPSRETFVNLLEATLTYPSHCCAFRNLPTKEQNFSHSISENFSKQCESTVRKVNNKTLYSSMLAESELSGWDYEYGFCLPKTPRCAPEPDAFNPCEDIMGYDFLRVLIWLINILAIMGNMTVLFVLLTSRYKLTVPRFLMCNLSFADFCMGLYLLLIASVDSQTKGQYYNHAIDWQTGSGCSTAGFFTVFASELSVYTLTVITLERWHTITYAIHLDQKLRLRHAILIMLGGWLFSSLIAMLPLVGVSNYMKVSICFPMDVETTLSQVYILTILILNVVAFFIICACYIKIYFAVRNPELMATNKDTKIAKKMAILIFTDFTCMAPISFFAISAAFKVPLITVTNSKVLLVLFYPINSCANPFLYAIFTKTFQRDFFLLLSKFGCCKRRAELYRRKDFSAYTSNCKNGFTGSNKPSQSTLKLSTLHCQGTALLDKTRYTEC
T1 sequence (P16473 whole entry): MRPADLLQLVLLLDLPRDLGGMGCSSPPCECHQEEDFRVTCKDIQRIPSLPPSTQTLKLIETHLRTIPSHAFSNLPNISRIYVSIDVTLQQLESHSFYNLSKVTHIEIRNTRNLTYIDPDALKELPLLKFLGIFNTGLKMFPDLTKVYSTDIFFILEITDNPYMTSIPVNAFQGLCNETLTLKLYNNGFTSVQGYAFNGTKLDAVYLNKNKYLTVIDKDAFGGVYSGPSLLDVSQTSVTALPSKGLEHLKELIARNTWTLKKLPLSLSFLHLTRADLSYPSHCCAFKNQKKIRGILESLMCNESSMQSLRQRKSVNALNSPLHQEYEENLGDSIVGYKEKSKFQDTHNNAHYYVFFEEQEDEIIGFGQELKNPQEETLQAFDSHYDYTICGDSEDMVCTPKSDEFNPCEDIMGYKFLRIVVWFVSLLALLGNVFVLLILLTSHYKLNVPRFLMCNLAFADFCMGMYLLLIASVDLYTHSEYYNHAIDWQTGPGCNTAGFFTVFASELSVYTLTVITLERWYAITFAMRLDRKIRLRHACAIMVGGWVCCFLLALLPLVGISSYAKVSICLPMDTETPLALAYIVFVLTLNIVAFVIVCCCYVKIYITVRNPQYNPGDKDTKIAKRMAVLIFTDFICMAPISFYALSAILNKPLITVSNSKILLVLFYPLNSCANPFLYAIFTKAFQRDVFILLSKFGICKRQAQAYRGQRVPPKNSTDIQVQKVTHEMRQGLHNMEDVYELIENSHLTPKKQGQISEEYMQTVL

SMILES: COc1ccc(C2Nc3ccccc3C(=O)N2Cc2ccco2)cc1COc1ccc(NC(C)=O)cc1 (stereo unspecified)
- EC50 [1]: 600 nM

SMILES: COc1ccc(C2Nc3cccc(O)c3C(=O)N2Cc2ccccc2)cc1COc1ccc(NC(C)=O)cc1 (stereo unspecified)
- EC50 [1]: 40 nM

SMILES: COc1ccc(C2Nc3ccccc3C(=O)N2Cc2ccco2)cc1COc1c(C)cccc1C (stereo unspecified)
- EC50 [2]: 480 nM
- IC50 [3]: 4600 nM

SMILES: COc1cccc(-c2nc(SC)nc3sc(C(=O)NC(C)(C)C)c(N)c23)c1
- EC50 [2]: 350 nM

SMILES: COc1ccc(C2Nc3ccccc3C(=O)N2Cc2cccnc2)cc1COc1c(C)cccc1C (stereo unspecified)
- EC50 [2]: > 30000 nM
- IC50 [3]: > 30000 nM
- IC50 [4]: 3500 nM

SMILES: CC(C)N(C(=O)c1cc(-c2ccccc2)nc2ccccc12)C(C)C
- EC50 [2]: > 10000 nM
- EC50 [5]: 130 nM

SMILES: CCCc1ccc(-c2cc(C(=O)NCc3ccncc3)c3ccccc3n2)cc1
- EC50 [6]: 8.3 nM
- EC50 [7]: 8.3 nM

SMILES: COC/C=C/c1ccc(-c2nc(SC)nc3sc(C(=O)NC(C)(C)C)c(N)c23)cc1
- EC50 [7]: 4.2 nM

SMILES: CC1=C(C(=O)OCc2ccccc2)C(c2ccc(C(F)(F)F)cc2)NC(=O)N1 (stereo unspecified)
- EC50 [2]: > 10000 nM
- EC50 [5]: 540 nM

SMILES: COc1ccc(C2Nc3ccccc3C(=O)N2Cc2ccco2)cc1COc1c(C)cc(NC(C)=O)cc1C (stereo unspecified)
- EC50 [2]: > 30000 nM
- IC50 [3]: > 30000 nM
- IC50 [4]: 2300 nM

SMILES: CNc1nc(-c2c(-c3ccccc3)[nH]c3ccccc23)cs1
- EC50 [8]: 12300 nM

SMILES: O=C1[C@@H]2[C@H]3C[C@H]([C@@H]4Sc5[nH]c(=O)sc5[C@@H](c5ccccc5)[C@H]34)[C@@H]2C(=O)N1c1ccccc1
- IC50 [9]: 40000 nM

SMILES: CC(c1ccccc1)c1nc(N2CCNCC2)nc2ccccc12 (stereo unspecified)
- EC50 [6]: 11.6 nM
